According to PubChem BioAssay (NCI):
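The compound was tested at five concentrations on cells cultured in 96-well plates, with a 48-hour exposure period. At the TGI there is no net growth.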

How the values were obtained:
Assay in all cases: growth of human tumour cells (NCI), 48 h
MDA-N = tested on: MDA-N
U251 CNS = tested on: U251 CNS
OVCAR-5 ovarian = tested on: OVCAR-5 ovarian
SF-295 CNS = tested on: SF-295 CNS
NCI/ADR-RES ovarian = tested on: NCI/ADR-RES ovarian
SK-MEL-28 melanoma = tested on: SK-MEL-28 melanoma
NCI-H23 lung = tested on: NCI-H23 lung
HOP-62 NSCLC = tested on: HOP-62 NSCLC
786-0 renal = tested on: 786-0 renal
DU-145 prostate = tested on: DU-145 prostate
MDA-MB-435 = tested on: MDA-MB-435
KM12 colon = tested on: KM12 colon
CCRF-CEM leukemia = tested on: CCRF-CEM leukemia
MCF7 breast = tested on: MCF7 breast
CAKI-1 renal = tested on: CAKI-1 renal
PC-3 prostate = tested on: PC-3 prostate
SW-620 colon = tested on: SW-620 colon
COLO 205 colon = tested on: COLO 205 colon
MDA-MB-231 breast = tested on: MDA-MB-231 breast
UO-31 renal = tested on: UO-31 renal
RXF 393 renal = tested on: RXF 393 renal
HCT-116 colon = tested on: HCT-116 colon
K-562 leukemia = tested on: K-562 leukemia
RPMI-8226 leukemia = tested on: RPMI-8226 leukemia
SF-539 CNS = tested on: SF-539 CNS
A549 NSCLC = tested on: A549 NSCLC
M14 melanoma = tested on: M14 melanoma
UACC-62 melanoma = tested on: UACC-62 melanoma
SK-MEL-5 melanoma = tested on: SK-MEL-5 melanoma
ACHN renal = tested on: ACHN renal
NCI-H460 lung = tested on: NCI-H460 lung
MALME-3M melanoma = tested on: MALME-3M melanoma
EKVX NSCLC = tested on: EKVX NSCLC
HOP-92 NSCLC = tested on: HOP-92 NSCLC
HCT-15 colon = tested on: HCT-15 colon
A498 renal = tested on: A498 renal
OVCAR-4 ovarian = tested on: OVCAR-4 ovarian
TK-10 renal = tested on: TK-10 renal
SK-MEL-2 melanoma = tested on: SK-MEL-2 melanoma
LOX IMVI melanoma = tested on: LOX IMVI melanoma
NCI-H522 lung = tested on: NCI-H522 lung
SNB-19 CNS = tested on: SNB-19 CNS
HCC-2998 colon = tested on: HCC-2998 colon
HL-60(TB) leukemia = tested on: HL-60(TB) leukemia
MOLT-4 leukemia = tested on: MOLT-4 leukemia
UACC-257 melanoma = tested on: UACC-257 melanoma
IGROV1 ovarian = tested on: IGROV1 ovarian
OVCAR-3 ovarian = tested on: OVCAR-3 ovarian
BT-549 breast = tested on: BT-549 breast
T-47D breast = tested on: T-47D breast
SR leukemia = tested on: SR leukemia
SN12C renal = tested on: SN12C renal
NCI-H226 lung = tested on: NCI-H226 lung
SK-OV-3 ovarian = tested on: SK-OV-3 ovarian
OVCAR-8 ovarian = tested on: OVCAR-8 ovarian
SNB-75 CNS = tested on: SNB-75 CNS
HT29 colon = tested on: HT29 colon
HS 578T breast = tested on: HS 578T breast
SF-268 CNS = tested on: SF-268 CNS

SMILES: CCOC(=O)c1sc2nc(SC)nc(Nc3ccc4c(c3)OCO4)c2c1N
- TGI (MDA-N): > 100 µM
- TGI (U251 CNS): > 100 µM
- TGI (OVCAR-5 ovarian): > 100 µM
- TGI (SF-295 CNS): 84.8 µM
- TGI (NCI/ADR-RES ovarian): > 100 µM
- TGI (SK-MEL-28 melanoma): 63.1 µM
- TGI (NCI-H23 lung): > 100 µM
- TGI (HOP-62 NSCLC): > 100 µM
- TGI (786-0 renal): > 100 µM
- TGI (DU-145 prostate): > 100 µM
- TGI (MDA-MB-435): > 100 µM
- TGI (KM12 colon): > 100 µM
- TGI (CCRF-CEM leukemia): > 100 µM
- TGI (MCF7 breast): > 100 µM
- TGI (CAKI-1 renal): > 100 µM
- TGI (PC-3 prostate): > 100 µM
- TGI (SW-620 colon): > 100 µM
- TGI (COLO 205 colon): > 100 µM
- TGI (MDA-MB-231 breast): > 100 µM
- TGI (UO-31 renal): > 100 µM
- TGI (RXF 393 renal): 31 µM
- TGI (HCT-116 colon): > 100 µM
- TGI (K-562 leukemia): > 100 µM
- TGI (RPMI-8226 leukemia): > 100 µM
- TGI (SF-539 CNS): > 100 µM
- TGI (A549 NSCLC): > 100 µM
- TGI (M14 melanoma): > 100 µM
- TGI (UACC-62 melanoma): > 100 µM
- TGI (SK-MEL-5 melanoma): > 100 µM
- TGI (ACHN renal): 69.4 µM
- TGI (NCI-H460 lung): > 100 µM
- TGI (MALME-3M melanoma): 97.6 µM
- TGI (EKVX NSCLC): 77.5 µM
- TGI (HOP-92 NSCLC): 71.6 µM
- TGI (HCT-15 colon): > 100 µM
- TGI (A498 renal): 96.9 µM
- TGI (OVCAR-4 ovarian): > 100 µM
- TGI (TK-10 renal): > 100 µM
- TGI (SK-MEL-2 melanoma): > 100 µM
- TGI (LOX IMVI melanoma): > 100 µM
- TGI (NCI-H522 lung): > 100 µM
- TGI (SNB-19 CNS): > 100 µM
- TGI (HCC-2998 colon): > 100 µM
- TGI (HL-60(TB) leukemia): > 100 µM
- TGI (MOLT-4 leukemia): > 100 µM
- TGI (UACC-257 melanoma): > 100 µM
- TGI (IGROV1 ovarian): > 100 µM
- TGI (OVCAR-3 ovarian): > 100 µM
- TGI (BT-549 breast): > 100 µM
- TGI (T-47D breast): > 100 µM
- TGI (SR leukemia): > 100 µM
- TGI (SN12C renal): > 100 µM
- TGI (NCI-H226 lung): > 100 µM

SMILES: COc1cc(/C=C2/SC(c3ccccc3)N(c3cc(Cl)ccc3Cl)C2=O)cc(OC)c1OC (centres undefined)
- TGI (MDA-N): 37.6 µM
- TGI (U251 CNS): > 100 µM
- TGI (OVCAR-5 ovarian): > 100 µM
- TGI (SF-295 CNS): > 100 µM
- TGI (NCI/ADR-RES ovarian): > 100 µM
- TGI (SK-MEL-28 melanoma): > 100 µM
- TGI (NCI-H23 lung): > 100 µM
- TGI (HOP-62 NSCLC): > 100 µM
- TGI (786-0 renal): > 100 µM
- TGI (DU-145 prostate): > 100 µM
- TGI (MDA-MB-435): 61.1 µM
- TGI (SK-OV-3 ovarian): > 100 µM
- TGI (KM12 colon): > 100 µM
- TGI (CCRF-CEM leukemia): > 100 µM
- TGI (MCF7 breast): > 100 µM
- TGI (CAKI-1 renal): 90.8 µM
- TGI (PC-3 prostate): > 100 µM
- TGI (SW-620 colon): > 100 µM
- TGI (OVCAR-8 ovarian): > 100 µM
- TGI (COLO 205 colon): > 100 µM
- TGI (MDA-MB-231 breast): > 100 µM
- TGI (UO-31 renal): > 100 µM
- TGI (RXF 393 renal): > 100 µM
- TGI (HCT-116 colon): > 100 µM
- TGI (K-562 leukemia): > 100 µM
- TGI (RPMI-8226 leukemia): > 100 µM
- TGI (A549 NSCLC): > 100 µM
- TGI (M14 melanoma): > 100 µM
- TGI (UACC-62 melanoma): > 100 µM
- TGI (SK-MEL-5 melanoma): > 100 µM
- TGI (ACHN renal): > 100 µM
- TGI (NCI-H460 lung): > 100 µM
- TGI (MALME-3M melanoma): > 100 µM
- TGI (EKVX NSCLC): > 100 µM
- TGI (HOP-92 NSCLC): > 100 µM
- TGI (HCT-15 colon): > 100 µM
- TGI (A498 renal): > 100 µM
- TGI (OVCAR-4 ovarian): > 100 µM
- TGI (TK-10 renal): > 100 µM
- TGI (SK-MEL-2 melanoma): > 100 µM
- TGI (LOX IMVI melanoma): > 100 µM
- TGI (NCI-H522 lung): > 100 µM
- TGI (SNB-19 CNS): > 100 µM
- TGI (HCC-2998 colon): > 100 µM
- TGI (HL-60(TB) leukemia): > 100 µM
- TGI (MOLT-4 leukemia): > 100 µM
- TGI (UACC-257 melanoma): > 100 µM
- TGI (IGROV1 ovarian): > 100 µM
- TGI (SNB-75 CNS): > 100 µM
- TGI (OVCAR-3 ovarian): > 100 µM
- TGI (BT-549 breast): > 100 µM
- TGI (HT29 colon): > 100 µM
- TGI (T-47D breast): > 100 µM
- TGI (SR leukemia): > 100 µM
- TGI (SN12C renal): > 100 µM
- TGI (NCI-H226 lung): > 100 µM

SMILES: COC(=O)c1c(O)c2c(c3c1OC(C)(C)CC3)OC(C)(C)CC2
- TGI (MDA-N): 51.9 µM
- TGI (U251 CNS): 29.6 µM
- TGI (OVCAR-5 ovarian): 35.2 µM
- TGI (HS 578T breast): 47.2 µM
- TGI (SF-295 CNS): 32.2 µM
- TGI (NCI/ADR-RES ovarian): 56.2 µM
- TGI (SK-MEL-28 melanoma): 68.8 µM
- TGI (NCI-H23 lung): 43.4 µM
- TGI (HOP-62 NSCLC): 42.7 µM
- TGI (786-0 renal): 31.1 µM
- TGI (DU-145 prostate): 74.7 µM
- TGI (SK-OV-3 ovarian): 77.1 µM
- TGI (KM12 colon): 31.6 µM
- TGI (CCRF-CEM leukemia): 55.6 µM
- TGI (MCF7 breast): 33.1 µM
- TGI (CAKI-1 renal): 53.9 µM
- TGI (PC-3 prostate): 35.7 µM
- TGI (SW-620 colon): 32.1 µM
- TGI (OVCAR-8 ovarian): 33.3 µM
- TGI (COLO 205 colon): 28.2 µM
- TGI (MDA-MB-231 breast): 30 µM
- TGI (UO-31 renal): 37.4 µM
- TGI (HCT-116 colon): 30.4 µM
- TGI (K-562 leukemia): 69.8 µM
- TGI (SF-539 CNS): 36 µM
- TGI (A549 NSCLC): 42.7 µM
- TGI (M14 melanoma): 41 µM
- TGI (UACC-62 melanoma): 40 µM
- TGI (SK-MEL-5 melanoma): 28.2 µM
- TGI (ACHN renal): 32.3 µM
- TGI (NCI-H460 lung): 50.6 µM
- TGI (MALME-3M melanoma): 20.9 µM
- TGI (EKVX NSCLC): 45.8 µM
- TGI (HCT-15 colon): 35.5 µM
- TGI (A498 renal): 34.4 µM
- TGI (OVCAR-4 ovarian): 97.7 µM
- TGI (SF-268 CNS): 60.7 µM
- TGI (NCI-H522 lung): 34.2 µM
- TGI (SNB-19 CNS): 34.9 µM
- TGI (HCC-2998 colon): 31.2 µM
- TGI (HL-60(TB) leukemia): 40.3 µM
- TGI (MOLT-4 leukemia): 56.1 µM
- TGI (UACC-257 melanoma): 50.8 µM
- TGI (IGROV1 ovarian): 42.8 µM
- TGI (OVCAR-3 ovarian): 36.3 µM
- TGI (BT-549 breast): 37.2 µM
- TGI (HT29 colon): 31.4 µM
- TGI (T-47D breast): 39.5 µM
- TGI (SN12C renal): 32.6 µM
- TGI (NCI-H226 lung): 35.9 µM
